Measurements reported in patent US10577363B2, “Substituted piperidine compounds” (EPIZYME, INC., priority 2014, dated 2020).

Tests used:
[1] = target: T1, SMYD3 (Homo sapiens (Human), UniProt Q9H7B4); assay: SMYD3 cell assay (Trimethyl-MEKK2 In-Cell Western in 293T/17 cells); format: cell-based; settings: 293T/17 cells; read-out: SMYD3 Cell IC50 (μM)*
Outline: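 In-Cell Western ratio of trimethyl-Lys260 MEKK2 to anti-flag signal; percent inhibition from DMSO and maximum-inhibition controls, IC50 by non-linear regression, triplicates.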

[2] = target: T1, SMYD3; assay: SMYD3 biochemical assay (SPA, 3H-SAM methylation of MEKK2 protein substrate); settings: read-out: SMYD3 Biochem IC50 (μM)*
Outline: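 Full-length native human SMYD3 (E. coli-expressed, tags removed) preincubated with compounds 30 min at room temperature, then reaction started with 3H-SAM and GST-tagged MEKK2 protein in 25 mM Tris-Cl pH 8.0, 1 mM TCEP, 0.005% BSG, 0.005% Tween 20. Quenched with unlabelled SAM (100 uM final); 3H-MEKK2 counted by SPA.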

T1 sequence (Q9H7B4 whole entry): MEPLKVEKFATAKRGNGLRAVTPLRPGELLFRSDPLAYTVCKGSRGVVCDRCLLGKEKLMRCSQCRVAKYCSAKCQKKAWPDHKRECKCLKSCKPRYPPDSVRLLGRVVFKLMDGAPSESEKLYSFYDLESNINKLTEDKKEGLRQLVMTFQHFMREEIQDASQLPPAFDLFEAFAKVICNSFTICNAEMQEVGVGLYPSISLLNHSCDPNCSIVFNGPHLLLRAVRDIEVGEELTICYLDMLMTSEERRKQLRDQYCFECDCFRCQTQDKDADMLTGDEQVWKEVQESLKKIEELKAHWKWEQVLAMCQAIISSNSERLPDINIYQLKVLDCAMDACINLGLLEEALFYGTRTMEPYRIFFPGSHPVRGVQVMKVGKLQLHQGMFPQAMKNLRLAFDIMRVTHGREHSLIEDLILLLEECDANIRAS

Row | Structure (SMILES) | IC50 [1] [µM] | IC50 [2] [µM]
1 | O=C(NC1CC2CCCC(C1)N2S(=O)(=O)c1ccccc1)c1cc(C2CC2)on1 (stereo not shown) [compound 401, 5-cyclopropyl-N-(9-(phenylsulfonyl)-9-azabicyclo[3.3.1]nonan-3-yl)isoxazole-3-carboxamide] | 2.95 | 0.793
2 | CC(=O)Nc1ccc(S(=O)(=O)N2C3CCCC2CC(NC(=O)c2cc(C4CC4)on2)C3)cc1 (stereo not shown) [compound 402, N-(9-((4-acetamidophenyl)sulfonyl)-9-azabicyclo[3.3.1]nonan-3-yl)-5-cyclopropylisoxazole-3-carboxamide] | > 10 | 4.92
3 | CC(=O)Nc1ccc(S(=O)(=O)N2[C@@H]3CC[C@H]2C[C@@H](NC(=O)c2cc(C4CC4)on2)C3)cc1 [compound 403, N-((1R,3r,5S)-8-((4-acetamidophenyl)sulfonyl)-8-azabicyclo[3.2.1]octan-3-yl)-5-cyclopropylisoxazole-3-carboxamide] | > 10 | 10
4 | O=C(N[C@@H]1C[C@H]2CC[C@@H](C1)N2S(=O)(=O)c1ccc2[nH]c(=O)oc2c1)c1cc(C2CC2)on1 [compound 404, 5-cyclopropyl-N-((1R,3s,5S)-8-((2-oxo-2,3-dihydrobenzo[d]oxazol-6-yl)sulfonyl)-8-azabicyclo[3.2.1]octan-3-yl)isoxazole-3-carboxamide] | 2.92 | 1.4
5 | O=C(N[C@H]1C[C@H]2CC[C@@H](C1)N2S(=O)(=O)c1ccc2[nH]c(=O)oc2c1)c1cc(C2CC2)on1 [compound 405, 5-cyclopropyl-N-((1R,3r,5S)-8-((2-oxo-2,3-dihydrobenzo[d]oxazol-6-yl)sulfonyl)-8-azabicyclo[3.2.1]octan-3-yl)isoxazole-3-carboxamide] | > 10 | 9.39
6 | O=C(N[C@@H]1CCN(S(=O)(=O)CCN2CCCC2)[C@H](Cc2ccccc2)C1)c1cc(C2CC2)on1 [compound 407, N-((2R,4R)-2-benzyl-1-((2-(pyrrolidin-1-yl)ethyl)sulfonyl)piperidin-4-yl)-5-cyclopropylisoxazole-3-carboxamide] | > 10 | 3.81
7 | O=C(NC1CC2CCCC(C1)N2S(=O)(=O)CCCN1CCOCC1)c1cc(C2CC2)on1 (stereo not shown) [compound 410, 5-cyclopropyl-N-(9-((3-morpholinopropyl)sulfonyl)-9-azabicyclo[3.3.1]nonan-3-yl)isoxazole-3-carboxamide] | > 10 | 6.32
8 | COCCN(C)c1ccc(S(=O)(=O)N2CC[C@H](NC(=O)c3cc(C4CC4)on3)C[C@@H]2C)cn1 [compound 412, 5-cyclopropyl-N-((2S,4S)-1-((6-((2-methoxyethyl)(methyl)amino)pyridin-3-yl)sulfonyl)-2-methylpiperidin-4-yl)isoxazole-3-carboxamide] | 8.22 | 2.12
9 | COCCNc1ccc(S(=O)(=O)N2CC[C@H](NC(=O)c3cc(C4CC4)on3)C[C@@H]2C)cn1 [compound 413, 5-cyclopropyl-N-((2S,4S)-1-((6-((2-methoxyethyl)amino)pyridin-3-yl)sulfonyl)-2-methylpiperidin-4-yl)isoxazole-3-carboxamide] | 4.51 | 1.48
10 | C[C@H]1C[C@@H](NC(=O)c2cc(C3CC3)on2)CCN1S(=O)(=O)c1ccc(N(C)CCN2CCOCC2)nc1 [compound 414, 5-cyclopropyl-N-((2S,4S)-2-methyl-1-((6-(methyl(2-morpholinoethyl)amino)pyridin-3-yl)sulfonyl)piperidin-4-yl)isoxazole-3-carboxamide] | 2.61 | 0.889
11 | C[C@H]1C[C@H](NC(=O)c2cc(C3CC3)on2)CCN1S(=O)(=O)c1ccc(NCCN)nc1 [compound 415, N-((2S,4R)-1-((6-((2-aminoethyl)amino)pyridin-3-yl)sulfonyl)-2-methylpiperidin-4-yl)-5-cyclopropylisoxazole-3-carboxamide] | 5.62 | 0.135
